Laboratory results taken from patent publication US20100227918A1, “STREPTOMYCES-DERIVED ANTIMICROBIAL COMPOUND AND METHOD OF USING SAME AGAINST ANTIBIOTIC-RESISTANT BACTERIA” (Taro Pharmaceuticals North America, Inc., priority 2006, published 2010).

Legend:
[1] = tested on: Candida albicans; test: antimicrobial paper disc assay (zone of inhibition); type: cell-based; conditions: known antibiotic controls, zone diameters of the classes (L1)
Description: (§1) The antimicrobial assay was performed as described in USP (See, Molecular Cloning, A Laboratory Manual). In brief, tested microorganism strains were grown in optimal culture media for growth at the optimal growth temperature for about 16 hours with shaking. Tested plates were prepared as follows. First, base agar layer-media were prepared as per USP. The media were then autoclaved, and cooled to 48° C. Once cooled to 48° C., 20 mL of the cooled media was poured onto a sterile polystyrene petri dish. This base agar layer was further allowed to solidify for 30 minutes (agar was added as a solidifying agent). Second, seed agar layers were prepared as per USP. The media were then autoclaved, and cooled to 48° C. Once cooled to 48° C., 1 mL of tested microorganism strain (already grown for 16 hours as described in the first step above) was added to the seed agar media. The seed agar media was gently swirled to mix. Five (5) mL of the seed agar media was pipetted on top of the base agar layer. Care was taken to avoid air bubbles. This seed agar media was allowed to cool for about 15 minutes at room temperature. Plates were stored at 4° C. until needed.
(§2) Ten (10) μl of each of the concentrated supernatants (described above) were pipetted onto a sterile filter paper disc. The sterile filter paper discs were dried in air for approximately 5 minutes. The sterile filter paper discs were carefully applied onto the surface of the plates (prepared as described above). Plates holding sterile filter discs were incubated either at 37° C. (for Micrococcus luteus, E. coli, and Pseudomonas aeriginosa) or at 30° C. (for Candida albicans) for a timer period of 24 hours. Negative controls included liquid culture media. Positive controls included known antimicrobial compounds such as vancomycin (against gram-positive bacteria), tetracycline (against gram-positive/gram-negative bacteria), and amphotericin B (against yeast/fungi).
(§3) Antimicrobial Assays: 10 μl of the 10-fold concentrated supernatants from each of the six (6) isolated colony was assayed for their antimicrobial activity against the twelve (12) microorganisms as listed above. The antimicrobial assay used in the tertiary screening was similar to that used in the secondary screening. In brief, tested microorganism strains were grown in optimal culture media for growth at the optimal growth temperature for about 16 hours with shaking. Tested plates were prepared as follows. First, base agar layer-media were prepared as per USP. The media were then autoclaved, and cooled to 48° C. Once cooled to 48° C., 20 mL of the cooled media was poured onto a sterile polystyrene petri dish. This base agar layer was further allowed to solidify for 30 minutes (agar was added as a solidifying agent). Second, seed agar layers were prepared as per USP. The media were then autoclaved, and cooled to 48° C. Once cooled to 48° C., 1 mL of tested microorganism strain (already grown for 16 hours as described in the first step above) was added to the seed agar media. The seed agar media was gently swirled to mix. Five (5) mL of the seed agar media was pipetted on top of the base agar layer. Care was taken to avoid air bubbles. This seed agar media was allowed to cool for about 15 minutes at room temperature. Plates were stored at 4° C. until needed.
(§4) Ten (10) μl of each of the concentrated supernatants were pipetted onto a sterile filter paper disc. The sterile filter paper discs were dried in air for approximately 5 minutes. The sterile filter paper discs were carefully applied onto the surface of the plates. Plates holding sterile filter discs were incubated either at 37° C. (for Staphylococcus aureus, MRSA, VRSA, Enterococcus faecilis, VRE, Micrococcus luteus, E. coli, Serratia marcesens and Pseudomonas aeriginosa) or at 30° C. (for Candida albicans) for a time period of 24 hours. Negative controls included liquid culture media.

[2] = tested on: Pseudomonas aeriginosa; test: as above; type: cell-based; conditions: known antibiotic controls, zone diameters of the classes (L1)
Description: as §1, §2, §3, §4

[3] = tested on: Serratia marcesens; test: as above; type: cell-based; conditions: known antibiotic controls, zone diameters of the classes (L1)
Description: as §3
as §4, with “media. Positive controls included known antimicrobial compounds such as vancomycin (against gram-positive bacteria), tetracycline (against gram-positive/gram-negative bacteria), and amphotericin B (against yeast/fungi).” for “media.”
(§5) In general, a zone of inhibition visualized as having a diameter of about 7-10 mm is classified as “+”; a diameter of about 11-14 mm is “++”; a diameter of about 15-18 mm is “+++”; a diameter of about 19-22 mm is “++++”, and a diameter of greater than 23 mm is classified as “+++++”.
(§6) The HPLC-purified material was diluted with sterile distilled water to a concentration of 0.1 μg/mL. The diluted HPLC-purified material was assayed for antimicrobial activity using the antimicrobial assay as described above. The diluted HPLC-purified material was assayed for its antimicrobial activity against ten (10) microorganisms; namely, 1) Staphylococcus aureus; 2) methicillin-resistant Staphylococcus aureus; 3) vancomycin-resistant Staphylococcus aureus; 4) Enterococcus faecilis; 5) vancomycin-resistant Enterococcus faecilis; 6) Mycobacterium smegmatis; 7) E. coli; 8) Pseudomonas aeriginosa; 9) Serratia marcesens; and 10) Candida albicans.

[4] = tested on: some gram-positive bacteria (such as Staphylococcus and Streptococcus); conditions: prior art, U.S. Pat. No. 3,966,913 and Japanese patents; cited from earlier work
[5] = tested on: penicillin-resistant Staphylococcus; conditions: prior art; cited from earlier work
[6] = tested on: methicillin or vancomycin resistant gram-positive bacteria; conditions: prior art; cited from earlier work
[7] = tested on: Staphylococcus aureus; test: antimicrobial paper disc assay (zone of inhibition); type: cell-based; conditions: HPLC-purified material (>99% purity) diluted to 0.1 μg/mL, known antibiotic controls, zone diameters of the classes (L1)
Description: Ten (10) μl of each of the concentrated supernatants were pipetted onto a sterile filter paper disc. The sterile filter paper discs were dried in air for approximately 5 minutes. The sterile filter paper discs were carefully applied onto the surface of the plates. Plates holding sterile filter discs were incubated either at 37° C. […]

[8] = tested on: Methicillin-Resistant Staphylococcus aureus; test: as above; type: cell-based; conditions: HPLC-purified material (>99% purity) diluted to 0.1 μg/mL, known antibiotic controls, zone diameters of the classes (L1)
[9] = tested on: E. coli; test: as above; type: cell-based; conditions: known antibiotic controls, zone diameters of the classes (L1)
Description: as §1, §2, §3, §4

[10] = tested on: Enterococcus faecilis; test: as above; type: cell-based; conditions: HPLC-purified material (>99% purity) diluted to 0.1 μg/mL, known antibiotic controls, zone diameters of the classes (L1)
Description: as §3
as §4, with “media. Positive controls included known antimicrobial compounds such as vancomycin (against gram-positive bacteria), tetracycline (against gram-positive/gram-negative bacteria), and amphotericin B (against yeast/fungi).” for “media.”
as §5, §6

[11] = tested on: Mycobacterium smegmatis; test: as above; type: cell-based; conditions: HPLC-purified material (>99% purity) diluted to 0.1 μg/mL, known antibiotic controls, zone diameters of the classes (L1)
Description: as §3
as §4, with “media. Positive controls included known antimicrobial compounds such as vancomycin (against gram-positive bacteria), tetracycline (against gram-positive/gram-negative bacteria), and amphotericin B (against yeast/fungi).” for “media.”
as §5, §6

[12] = tested on: Vancomycin-Resistant Enterococcus faecilis; test: as above; type: cell-based; conditions: HPLC-purified material (>99% purity) diluted to 0.1 μg/mL, zone diameters of the classes (L1)
Description: as §3
as §4, with “media. Positive controls included known antimicrobial compounds such as vancomycin (against gram-positive bacteria), tetracycline (against gram-positive/gram-negative bacteria), and amphotericin B (against yeast/fungi).” for “media.”
as §5, §6

[13] = tested on: Vancomycin-Resistant Staphylococcus aureus; test: as above; type: cell-based; conditions: HPLC-purified material (>99% purity) diluted to 0.1 μg/mL, zone diameters of the classes (L1)
Description: as §3
as §4, with “media. Positive controls included known antimicrobial compounds such as vancomycin (against gram-positive bacteria), tetracycline (against gram-positive/gram-negative bacteria), and amphotericin B (against yeast/fungi).” for “media.”
as §5, §6

[14] = tested on: Mycobacteria smegmatis; conditions: Journal of Antibiotics 29(7), 756-8; cited from earlier work
[15] = HPLC-purified material (>99% purity) diluted to 0.1 μg/mL, paper disc assay
[16] = tertiary screening, 10 μl of 10-fold concentrated supernatant on paper disc, 37° C., 24 hours

C[C@@H]1[C@H](O)[C@@H](C)/C=C/C=C/C=C/C=C/C=C/C=C/C=C/[C@H](O[C@@H]2O[C@H](C)[C@@H](O)[C@H](N)[C@@H]2O)C[C@@H]2O[C@](O)(C[C@@H](O)C[C@@H](O)[C@H](O)CC[C@@H](O)C[C@@H](O)CC(=O)O[C@H]1C)C[C@H](O)[C@H]2C(=O)O [amphotericin B]
Antimicrobial Activity (zone of inhibition), Candida albicans [1, 15]: amphotericin B (+++++)
Antimicrobial Activity (zone of inhibition), Candida albicans ([1]; tertiary screening, 10 μl of 10-fold concentrated supernatant on paper disc, 30° C., 24 hours): amphotericin B (+++++)

gentamicin
Antimicrobial Activity (zone of inhibition), Pseudomonas aeriginosa [2, 15]: gentamicin (+++++)
Antimicrobial Activity (zone of inhibition), Pseudomonas aeriginosa [2, 16]: gentamicin (+++++)
Antimicrobial Activity (zone of inhibition), Serratia marcesens [3, 15]: gentamicin (+++++)
Antimicrobial Activity (zone of inhibition), Serratia marcesens [3, 16]: gentamicin (+++++)

CC1OC2CC(=O)OC2C2=C1C(=O)c1c(ccc(C3CC(N(C)C)C(O)C(C)O3)c1O)C2=O (stereo not shown) [Lactoquinomycin A]
antimicrobial activity against some gram-positive bacteria (such as Staphylococcus and Streptococcus) [4]: exert an antimicrobial activity
antimicrobial activity against certain penicillin-resistant Staphylococcus [5]: exert an antimicrobial activity
antimicrobial activity against methicillin or vancomycin resistant gram-positive bacteria [6]: no antimicrobial activity

CC1OC2CC(=O)OC2C2=C1C(=O)c1c(ccc(C3CC(N(C)C)C(O)C(C)O3)c1O)C2=O [Purified Lactoquinomycin, 2H-Furo[3,2-b]naphtho[2,3-d]pyran-2,6,11-trione,3,3a,5,11b-tetrahydro-7-hydroxy-5-methyl-8-[2,3,6-trideoxy-3-(dimethylamino)-β-D-arabino-hexopyranosyl]-,(3aR,5R,11bR)]
Antimicrobial Activity (zone of inhibition), Staphylococcus aureus [7]: +++++
Antimicrobial Activity (zone of inhibition), Methicillin-Resistant Staphylococcus aureus [8]: +++++
Antimicrobial Activity (zone of inhibition), Candida albicans [1, 15]: −
Antimicrobial Activity (zone of inhibition), E. coli [9, 15]: −
Antimicrobial Activity (zone of inhibition), Pseudomonas aeriginosa [2, 15]: −
Antimicrobial Activity (zone of inhibition), Enterococcus faecilis [10]: +++
Antimicrobial Activity (zone of inhibition), Mycobacterium smegmatis [11]: +++++
Antimicrobial Activity (zone of inhibition), Serratia marcesens [3, 15]: −
Antimicrobial Activity (zone of inhibition), Vancomycin-Resistant Enterococcus faecilis [12]: +++
Antimicrobial Activity (zone of inhibition), Vancomycin-Resistant Staphylococcus aureus [13]: +++++
antimicrobial activity against mycobacteria (i.e. Mycobacteria smegmatis) [14]: no antimicrobial activity

CN(C)[C@@H]1C(O)=C(C(N)=O)C(=O)[C@@]2(O)C(O)=C3C(=O)c4c(O)cccc4[C@@](C)(O)[C@H]3C[C@@H]12 [tetracycline]
Antimicrobial Activity (zone of inhibition), E. coli [9, 15]: tetracycline (+++++)
Antimicrobial Activity (zone of inhibition), E. coli [9, 16]: tetracycline (+++++)
